These results are taken from ChEMBL document CHEMBL1201862, “PubChem BioAssay data set” (2004).

Among the test systems are CAKI-1; NCI-H460; SF-295; IGROV-1; DMS-114; MDA-MB-231; M19-MEL; HCT-15; COLO 205; K562; RPMI-8226; NCI/ADR-RES; HL-60; HCT-116; RXF 393; SN12C; SW-620; DLD-1; NCI-H226; UACC-257.
Common to all, as to experiment: NCI anticancer screen, dose series, 48 h

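Growth conditions: 96-well plates. Treatment: test compound, 48 hours, 5 concentrations. Analysis: linear interpolation between bracketing concentrations; unreached endpoints set to highest concentration. GI50 = concentration required for 50% inhibition of growth.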 Calls of active or inactive are those of the source. Cut-off read from the data, not from the text of the source: active = GI50 up to about 1.1 µM and inactive = higher.

For `COc1ccccc1NC(=O)CC(=O)n1nc(C)c(/N=N/c2ccccc2Cl)c1C`, the GI50 in the assay with CAKI-1 is > 100 µM (inactive); in the assay with NCI-H460, > 100 µM (inactive); in the assay with SF-295, 83.4 µM (inactive); in the assay with IGROV-1, > 100 µM (inactive); in the assay with DMS-114 it was > 100 µM (inactive); in the assay with MDA-MB-231, > 100 µM (inactive). Moreover, the GI50 in the assay on M19-MEL is > 100 µM (inactive); with HCT-15, over 100 µM; with COLO 205 it was > 100 µM (inactive); with K562, > 90.2 µM (inactive); with RPMI-8226, > 100 µM (inactive); in the assay on NCI/ADR-RES it was > 100 µM (inactive). Besides, the GI50 was > 95.5 µM (inactive) in the assay on HL-60; > 100 µM (inactive) with HCT-116; > 100 µM (inactive) in the assay with RXF 393; > 100 µM (inactive) with SN12C; > 100 µM (inactive) in the assay on SW-620; > 100 µM (inactive) with DLD-1. Further, the GI50 was > 100 µM (inactive) in the assay with NCI-H226 and > 91.4 µM (inactive) with UACC-257.

In the case of `CC(/C=C/C=C\C=C\C=C(/C)C(=O)NC(C)CO)=C\C(C)C(O)/C(C)=C/C(C)CCc1ccccc1` (stereo not given), the GI50 in the assay on CAKI-1 is 14.2 µM (inactive); in the assay with NCI-H460 it was 3.85 µM (inactive); in the assay on SF-295 it was 0.0236 µM (active); in the assay with IGROV-1, 11.1 µM (inactive); in the assay with DMS-114, < 0.01 µM (active); in the assay with MDA-MB-231, 14.6 µM (inactive). For the same compound, the GI50 in the assay with M19-MEL is 5.15 µM (inactive); in the assay on HCT-15, 12.8 µM; with COLO 205, 13.7 µM (inactive); in the assay on K562 it was 0.364 µM (active); in the assay on RPMI-8226, 4.14 µM (inactive); with NCI/ADR-RES it was 15.6 µM (inactive). Further, the GI50 in the assay on HL-60 was 5.02 µM (inactive); in the assay with HCT-116 it was 0.127 µM (active); in the assay with RXF 393 it was 12.9 µM (inactive); in the assay on SN12C it was 12.8 µM (inactive); with SW-620, 13.6 µM (inactive); in the assay with DLD-1 it was 13.7 µM (inactive). Also, the results for the GI50 in the assay on NCI-H226 and with UACC-257 were 8.65 µM (inactive) and 0.0359 µM (active), respectively.
